Publication PMC7356297, “Bicyclic Boronates as Potent Inhibitors of AmpC, the Class C β-Lactamase from Escherichia coli” (Biomolecules, 2020)
Several values for one entry are separate records, joined by “and”; a condition that tells them apart may be missing. Equal entries are not always repeated.

Legend:
[1] = biological target: T1, AmpC from Escherichia coli (AmpCEC) (Escherichia coli, UniProt P00811); experiment: IC50 determination, 500 pM AmpCEC, 5 µM FC-5, 10 min pre-incubation; format: biochemical; conditions: pIC50, 500 pM AmpCEC, 5 µM FC-5, 10 min inhibitor pre-incubation at room temperature
T1 construct: made in house; host or cells: E. coli W3110 (pAD7 vector)
Description: (§1) All kinetic measurements were carried out in competition assays using the fluorescent substrate FC-5 [36] under steady-state conditions monitoring hydrolysis, in 100 mM phosphate buffer pH 7.5 supplemented with 0.01% (v/v) Triton X-100 (Assay Buffer). Fluorescence was measured using a PHERAstarFS (BMG Labtech, Aylesbury, United Kingdom) plate-reader, recording emission spectra at λex = 380 nm and λem = 460 nm. IC50s were determined after 10 min incubation time of 500 pM AmpCEC with varying concentrations of inhibitors and assayed using 5 µM FC-5. Nonlinear regression analyses were carried out using GraphPad Prism V. 5.04 (GraphPad Software, San Diego, CA, USA).

[2] = system: DH5α E. coli containing the pAD7-AmpCEC plasmid; experiment: Broth microdilution MIC of ceftazidime alone or with inhibitor, AmpCEC producing strain; format: cell-based, Escherichia coli
Description: (§2) Minimum inhibitory concentrations (MICs) were determined by broth microdilution in triplicate and interpreted using published Clinical and Laboratory Standards Institute (CLSI) guidelines.
(§3) Ceftazidime (CAZ) was tested alone (0.25–256 μg mL^−1) against DH5α Escherichia coli and DH5α E. coli containing the pAD7-AmpCEC plasmid and in combination with CB2, CB3, TAN, and VAB (all tested at a fixed concentration of 4 μg mL^−1) using the DH5α E. coli strain containing the pAD7-AmpCEC plasmid.

[3] = biological target: T1, AmpC from Escherichia coli (AmpCEC); experiment: Steady-state competition kinetics of AmpCEC (100 nM) with fluorescent substrate FC-5 (Kiapp, k2/K); format: biochemical; conditions: for Ki: Kiapp, apparent inhibition constant corrected with KM of FC-5; for kinact/KI: pH 7.5, read-out: k2/K, 100 nM AmpCEC, 5 µM FC-5
Description: as §1
As described for avibactam inhibition, the kinetics of bicyclic boronate inhibition of β-lactamases can be described assuming a two-step, reversible inhibition model:(1) E+I → k1 ←k−1 E:I → k2 ←k−2 E−I with E: enzyme; I: inhibitor; k1: association rate constant; k−1: dissociation rate constant; k2: binding rate constant, and k−2: recyclization rate constant.
To obtain the pseudo first-order rate constant kobs and the apparent inhibition constant Kiapp, the rate of FC-5 (5 µM) hydrolysis by AmpCEC (100 nM) was measured in the presence of varying concentrations of the inhibitor.
Plotting the resultant kobs values against the inhibitor concentration [I] (Figure S1b) and fitting to Equation (3) gives the apparent second-order rate constant (k2/K’) (3) kobs=k2+k2/K^′∗ I with K’ representing the equilibrium coefficient of AmpCEC inhibition in the presence of FC-5 in the set concentration of 5 µM.
This can then be corrected using the Michaelis constant (KM) of FC-5 for AmpCEC and the FC-5 concentration [S] according to Equation (4) to give the second-order rate constant (k2/K):(4) k2/K=k2/K^′∗ S/KM+1
The same data were used to determine the apparent inhibition constant Kiapp. The reciprocals of the initial rates were plotted against inhibitor concentration (Figure S1a), giving a straight line for which the value of the intercept divided by the slope gives Kiapp’. From this, Kiapp can be obtained after correction with the KM for FC-5 according to Equation (5):(5) Kiapp=Kiapp’/1+S/KM

[4] = biological target: T1, AmpC from Escherichia coli (AmpCEC); format: biochemical; conditions: half-life of the enzyme-inhibitor complex, ln2/koff
Description: as §1
Off rates (k-2 or koff) were measured using the jump-dilution method (Figure S1c). AmpCEC (1 µM) was incubated with the respective inhibitor (10 µM for TAN, CB2 and CB3, and 100 µM for VAB) for 30 min at room temperature, then diluted 100,000 fold in the Assay Buffer (final enzyme concentration: 10 pM) and immediately assayed with 25 µM FC-5. The data were fitted to Equation (2) with V0 in this case representing the velocity of the no-enzyme control and VS representing the initial velocity of uninhibited enzyme.
The half-life of the enzyme-inhibitor complex t1/2 is given by Equation (6):(6) t1/2=ln2/koff

[5] = system: DH5α Escherichia coli; experiment: Broth microdilution MIC of ceftazidime, strain without plasmid; format: cell-based; conditions: read-out: Minimum Inhibitory Concentration Ceftazidime
Description: as §2, §3

T1 sequence (P00811 20-377): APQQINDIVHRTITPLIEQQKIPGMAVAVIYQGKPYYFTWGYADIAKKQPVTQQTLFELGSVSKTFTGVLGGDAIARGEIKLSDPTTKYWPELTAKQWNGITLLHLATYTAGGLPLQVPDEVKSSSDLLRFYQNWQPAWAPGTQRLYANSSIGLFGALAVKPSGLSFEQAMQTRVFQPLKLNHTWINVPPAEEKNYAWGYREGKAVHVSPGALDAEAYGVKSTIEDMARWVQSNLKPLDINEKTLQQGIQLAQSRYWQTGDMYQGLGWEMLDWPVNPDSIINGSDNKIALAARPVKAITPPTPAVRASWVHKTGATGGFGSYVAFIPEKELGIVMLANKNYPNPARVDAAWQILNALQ

| SMILES | IC50 [1] | Minimum Inhibitory Concentration Ceftazidime (CAZ + inhibitor) ([2]; CAZ in combination with the inhibitor at a fixed concentration of 4 µg mL^−1, DH5α pAD7 AmpCEC) [µg/mL] | Ki ([3]; 100 nM AmpCEC, 5 µM FC-5) | kinact/KI ([3]; second-order rate constant) [M⁻¹ s⁻¹] | t1/2 [4] [min] | MIC [5] [µg/mL] | MIC ([2]; Escherichia coli, read-out: Minimum Inhibitory Concentration Ceftazidime) [µg/mL] | k2/K ([3]; 100 nM AmpCEC, 5 µM FC-5, second-order rate constant) [M^−1 s^−1 × 10^3] |
| --- | --- | --- | --- | --- | --- | --- | --- | --- |
| O=C(O)c1cccc2c1OB(O)C(SCc1ccccc1)C2 (centres unmarked) [CB3] | 29.5 nM | 4 | 1000 nM and 1160 nM | 224000 ± 21000 | 0.55 ± 0.34 |  |  |  |
| CC(C)(O/N=C(\C(=O)N[C@@H]1C(=O)N2C(C(=O)[O-])=C(C[n+]3ccccc3)CS[C@H]12)c1csc(N)n1)C(=O)O [CAZ, Ceftazidime] |  |  |  |  |  | 1 | 256 |  |
| O=C(O)C[C@@H]1CC[C@H](NC(=O)Cc2cccs2)B(O)O1 [VAB, vaborbactam] | 501 nM and 479 nM |  | 19000 nM and 19100 nM | ~7000 | 16.8 ± 0.7 |  |  | 6.55 ± 0.46 |
| NCc1ccc(C(=O)N[C@H]2Cc3cccc(C(=O)O)c3OB2O)cc1 [CB2] | 31.6 nM and 32.4 nM |  | 3000 nM and 3260 nM | 81000 ± 6400 | 4.18 ± 0.41 |  |  |  |
| NCCN[C@H]1CC[C@H](CC(=O)N[C@H]2Cc3cccc(C(=O)O)c3OB2O)CC1 [TAN, taniborbactam] | 29.5 nM |  | 4000 nM and 3730 nM | 85600 ± 9200 | 4.55 ± 0.91 |  |  |  |
